Experimental findings from patent US8222218B2, “Cyclopropanated carbohydrates” (Seton Hall University, priority 2008, dated 2012) are described below.

For series [1], the system named is metrazole-induced clonic seizures. Briefly: Subcutaneous Metrazole Seizure Threshold Test (scMET), mice. The series is classed as in vivo. As to conditions: Mus musculus, sc, mice. The method, boiled down:
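CF1 mice dosed with test compound at 30, 100 and 300 mg/kg; Sprague-Dawley rats at 50 mg/kg p.o. At compound TPE, metrazole at CD97 (85 mg/kg in mice) injected s.c. in the neck. Animals observed 30 min; endpoint is a 3-5 s clonic spasm episode.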

The next series has as its system MES-induced seizures. Briefly: Maximal Electroshock Seizure (MES) test, mice. Type of series: in vivo. The following applies: Mus musculus, ip, mice, i.p. The essentials: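 Seizures were induced by a 60 Hz corneal current for 2 s (50 mA in CF1 mice, 150 mA in Sprague-Dawley rats). Mice received 30, 100 or 300 mg/kg i.p. in 0.5% methylcellulose and were tested at several intervals; rats received 30 mg/kg p.o. Protection means abolition of hind-limb tonic extension.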

For series [2], the system named is electrically-induced psychomotor seizure (6 Hz). Briefly: Minimal Clonic Seizure (6 Hz) test, mice. Type of series: in vivo. As to conditions: i.p., 100 mg/kg. As to the method:
(§1) Toxicity was measured using the minimal motor impairment test described below.
(§2) The minimal clonic seizure (6 Hz) test, like the MES test, is used to assess a compound's ability to protect against electrically-induced seizures. The minimal clonic (6 Hz) seizure test uses a lower frequency (6 Hz) and a longer duration of stimulation (3 seconds) than the MES test. Test compounds are pre-administered to mice via i.p. injection. At varying times, individual mice (four per time point) are challenged with sufficient current via corneal electrodes to elicit a psychomotor seizure in 97% of animals (32 mA for 3 second). Untreated mice will display seizure characterized by a minimal clonic phase followed by stereotyped, automatistic behaviors described originally as being similar to the aura of human patients with partial seizures. Animals not displaying this behavior are considered to be protected.
Male and female albino CF1 mice (18-25 g, Charles River, Portage, Mich.) and male albino Sprague-Dawley rats (275-300 g, kindling test; 100-150 g all other tests; Charles River, Raleigh, N.C.) were used as experimental animals.

The nature of series [3]: Acute toxicity, minimal motor impairment (rotorod), mice. The series is classed as in vivo. As to conditions: for TOX 30 0.5 h (animals toxic/tested) / TOX 30 4 h (animals toxic/tested) / TOX 100 0.5 h (animals toxic/tested) / TOX 100 4 h (animals toxic/tested) / TOX 300 0.5 h (animals toxic/tested) / TOX 300 4 h (animals toxic/tested): mice, rotorod; for TOX 30 0.5 h (animals toxic/tested) / TOX 30 4 h (animals toxic/tested): 30 mg/kg; for TOX 100 0.5 h (animals toxic/tested) / TOX 100 4 h (animals toxic/tested): 100 mg/kg; for TOX 300 0.5 h (animals toxic/tested) / TOX 300 4 h (animals toxic/tested): 300 mg/kg. The method, boiled down:
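Mice placed on a rod rotating at 6 rpm; a compound is scored toxic when the animal falls off three times within 1 min. In rats, minimal motor deficit is scored as ataxia, an abnormal uncoordinated gait.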

A further series has as its system seizures. In words: In vivo anticonvulsant screening (MES, scMET, minimal clonic seizure), summary in words. Also on record: species or system rat, mouse. As to conditions: summary of Table 2. As to the method: as §1
The MES test is a model for generalized tonic-clonic seizures. The seizures are highly reproducible and electrophysiologically consistent with human seizures. The test provides information about a compound's ability to prevent the spread of seizure when all neuronal circuits of the brain are maximally active. 60 Hz of alternating current (50 mA in mice, 150 mA in rats) is applied for 2 seconds via corneal electrodes that have been treated with an electrolyte solution containing an anesthetic (0.5% tetracaine HCl). Mice are tested at a variety of intervals after an i.p. injection of […] solution of the test compound (commonly in a 0.5% solution of methylcellulose) at 30, 100, and 300 mg/kg doses. Rats are examined after a 30 mg/kg (per os, p.o.) dose that is applied in a volume of 0.04 mL/g. An animal is considered “protected” from MES-induced seizures upon removal of the hind limb extensor component of the seizure.
The subcutaneous injection of metrazole, which is a convulsant, produces clonic seizures in laboratory animals. The scMET test is designed to identify compounds that raise the seizure threshold of an animal. Mice are pretreated with test compound at 30, 100, and 300 mg/kg doses in a similar manner to the MES test. Rats are treated with a 50 mg/kg dose (p.o.). At the previously determined TPE of the test compound, the dose of metrazole that will induce convulsions in 97% of animals (CD97: 85 mg/kg mice) is injected into the loose fold of the skin in the midline of the neck. The animals are placed in isolation cages to minimize stress and observed for the next 30 minutes for the presence or absence of seizures. An episode of clonic spasms (approximately 3-5 seconds) of the fore and/or hindlimbs, jaws or vibrissae is taken as the endpoint.
as §2

Setting [4] is: 0.4 h, read-out: scMET 30 0.4 h (animals protected/tested).
The mark [5] stands for this setting: 0.5 h, read-out: scMET 30 0.5 h (animals protected/tested).
[6] abbreviates: 0.4 h, read-out: scMET 100 0.4 h (animals protected/tested).
Setting [7] is: 0.5 h, read-out: scMET 100 0.5 h (animals protected/tested).
The mark [8] stands for this setting: 0.4 h, read-out: scMET 300 0.4 h (animals protected/tested).
Where [9] appears, read: 0.5 h, read-out: scMET 300 0.5 h (animals protected/tested).
[10] abbreviates: 0.5 h, read-out: MES 30 0.5 h (animals protected/tested).
The mark [11] stands for this setting: 4 h, read-out: MES 30 4 h (animals protected/tested).
Where [12] appears, read: 0.5 h, read-out: MES 100 0.5 h (animals protected/tested).
Where [13] appears, read: 4 h, read-out: MES 100 4 h (animals protected/tested).
[14] abbreviates: 0.5 h, read-out: MES 300 0.5 h (animals protected/tested).
Setting [15] is: 4 h, read-out: MES 300 4 h (animals protected/tested).

Like-named read-outs stand apart in the source and are kept apart here.

For the compound `CCOC(=O)C1[C@@H]2[C@@H](OS(N)(=O)=O)[C@@H]3O[C@H](c4ccc(OC)cc4)OC[C@H]3O[C@H]12` (stereo partly drawn) [Compound 17b, ethyl (2R,4aR,5aS,6aS,7R,7aR)-2-(4-methoxyphenyl)-7(sulfamoyloxy)hexahydro-4H-cyclopropa[5,6]pyrano[3,2-d][1,3]dioxine-6-carboxylate], the responders at 30 mg/kg (in series [1] (setting [4]); in series [1] (setting [5]); in the series on MES-induced seizures (setting [10]); with MES-induced seizures (setting [11])) was 0% throughout. The responders at 100 mg/kg (in series [1] (setting [6]); in series [1] (setting [7]); with MES-induced seizures (setting [12]); in the series with MES-induced seizures (setting [13])) was 0% each time. Moreover, the responders at 300 mg/kg (in series [1] (setting [8]); in series [1] (setting [9]); in the series with MES-induced seizures (setting [14]); with MES-induced seizures (setting [15])) was 0% throughout. Further, the “6 Hz 100 0.25 h (animals protected/tested)” value in series [2] is recorded as 0/4. In series [2], the “6 Hz 100 0.5 h (animals protected/tested)” value was 1/4. The “6 Hz 100 2 h (animals protected/tested)” value in series [2] is recorded as 1/4. The “TOX 30 0.5 h (animals toxic/tested)” value in series [3] was 0/4. Moreover, the “TOX 30 4 h (animals toxic/tested)” value in series [3] is 0/2. The “TOX 100 0.5 h (animals toxic/tested)” value in series [3] is 0/8. In addition, in series [3], the “TOX 100 4 h (animals toxic/tested)” value is given as 0/4. The “TOX 300 0.5 h (animals toxic/tested)” value in series [3] is 2/4. Besides, the “TOX 300 4 h (animals toxic/tested)” value in series [3] is given as 0/2. Moreover, in the series on seizures, the “anticonvulsant activity” value is “anticonvulsant activity”.
For `CCOC(=O)C1[C@@H]2[C@@H](O)[C@@H]3O[C@H](c4ccc(F)cc4F)OC[C@H]3O[C@H]12` (stereo partly drawn) [Compound 20d, Ethyl (2R,4aR,5aS,6aR,7R,7aS)-2-(2,4-difluorophenyl)-7-hydroxyhexahydro-4H-cyclopropa[5,6]pyrano[3,2-d][1,3]dioxine-6-carboxylate], the responders at 30 mg/kg (in series [1] (setting [4]); in series [1] (setting [5]); in the series with MES-induced seizures (setting [10]); in the series with MES-induced seizures (setting [11])) was 0% in each case. The responders at 100 mg/kg (in series [1] (setting [6]); in series [1] (setting [7]); in the series with MES-induced seizures (setting [12]); with MES-induced seizures (setting [13])) was 0% each time. Further, the responders at 300 mg/kg (in series [1] (setting [8]); in series [1] (setting [9]); in the series with MES-induced seizures (setting [14]); in the series with MES-induced seizures (setting [15])) was 0% throughout. Also, the “6 Hz 100 0.25 h (animals protected/tested)” value in series [2] is 1/4. In addition, the “6 Hz 100 0.5 h (animals protected/tested)” value in series [2] was 0/4. For the same compound, the “6 Hz 100 2 h (animals protected/tested)” value in series [2] is 0/4. Also, the “minimal motor impairment” value in series [3] (at same time point / dose as observed activity) is recorded as “minimal motor impairment at the same dose”. Further, the “TOX 30 0.5 h (animals toxic/tested)” value in series [3] is 1/4. For the same compound, the “TOX 30 4 h (animals toxic/tested)” value in series [3] was 0/2. Also, the “TOX 100 0.5 h (animals toxic/tested)” value in series [3] was 1/8. Moreover, the “TOX 100 4 h (animals toxic/tested)” value in series [3] is given as 0/4. In addition, the “TOX 300 0.5 h (animals toxic/tested)” value in series [3] is reported as 2/4. For the same compound, the “TOX 300 4 h (animals toxic/tested)” value in series [3] was 1/2. Further, the “anticonvulsant activity” value with seizures is listed as “exhibited activity”.
